# Test results from paper PMC6982817, “Substituted N-(Pyrazin-2-yl)benzenesulfonamides; Synthesis, Anti-Infective Evaluation, Cytotoxicity, and In Silico Studies” (Molecules, 2019).
# Read-outs that look alike come from different tables or passages of the source.
# Legend:
# [1] = tested on: Mycobacterium aurum DSM 43999 (ATCC 23366); assay: Antimycobacterial microdilution assay, M. aurum; format: cell-based; details: Middlebrook 7H9 broth, resazurin after 72 hours; for MIC: Mycolicibacterium aurum, 72 h
# [2] = tested on: M. avium ssp. avium CNCTC My 80/72 (ATCC 15769); assay: Antimycobacterial microplate alamar blue assay, M. avium; format: cell-based, Mycobacterium avium; details: for MIC: Mycobacterium avium
# [3] = tested on: M. kansasii CNCTC My 235/80 (ATCC 12478); assay: Antimycobacterial microplate alamar blue assay, M. kansasii; format: cell-based, Mycobacterium kansasii; details: for Antimycobacterial Activity MIC M. kansasii: Middlebrook 7H9 broth pH 6.6, alamar blue; for MIC: Mycobacterium kansasii
# [4] = in vitro; details: human
# [5] = tested on: Mycobacterium tuberculosis H37Rv CNCTC My 331/88 (ATCC 27294); assay: Antimycobacterial microplate alamar blue assay, M. tuberculosis H37Rv; format: cell-based; details: for MIC: Mycobacterium tuberculosis; for Antimycobacterial Activity MIC Mtb H37Rv: Middlebrook 7H9 broth pH 6.6, alamar blue
# [6] = tested on: Mycobacterium smegmatis DSM 43465 (ATCC 607); assay: Antimycobacterial microdilution assay, M. smegmatis; format: cell-based; details: for MIC: Mycolicibacterium smegmatis
# [7] = ATCC15769, pH 6.6, Middlebrook 7H9 broth pH 6.6, alamar blue, read-out: Antimycobacterial Activity MIC M. avium
# [8] = ATCC12478, molar value printed beside μg/mL in text, read-out: MIC M. kansasii
# [9] = ATCC12478, pH 6.6, Middlebrook 7H9 broth pH 6.6, alamar blue, read-out: Antimycobacterial Activity MIC M. kansasii
# [10] = pH 6.6, Middlebrook 7H9 broth pH 6.6, alamar blue, read-out: Antimycobacterial Activity MIC Mtb H37Rv
# [11] = 48 h, Middlebrook 7H9 broth, resazurin after 48 hours, read-out: Antimycobacterial Activity MIC M. smeg
# [12] = Middlebrook 7H9 broth, resazurin after 48 hours
# [13] = Table 4 comparison, title compounds, read-out: Antimycobacterial Activity MIC against Mtb H37Rv, Sulfonamide
Compound,MIC [1] [µg/mL],"MIC [2, 7] [µg/mL]",Antimycobacterial Activity MIC M. kansasii [3] [µg/mL],"MIC [3, 8] [µM]","MIC [3, 9] [µg/mL]",IC50 at 24 h [4] [µM],"MIC [5, 10] [µg/mL]","MIC [6, 11] [µg/mL]",melting point [°C],"MIC ([2]; ATCC15769, molar value printed beside μg/mL in text, read-out: MIC M. avium) [µM]",MIC ([5]; read-out: MIC Mtb H37Rv) [µM],MIC ([6]; read-out: MIC M. smegmatis) [µM],Antimycobacterial Activity MIC M. aurum [1] [µg/mL],"Antimycobacterial Activity MIC M. smeg [6, 12] [µg/mL]","MIC [5, 13] [µg/mL]",Antimycobacterial Activity MIC Mtb H37Rv [5],"MIC ([5]; pH 6.6, read-out: Antimycobacterial Activity MIC Mtb H37Rv) [µg/mL]","Antimycobacterial Activity MIC M. avium ([2]; Middlebrook 7H9 broth pH 6.6, alamar blue) [µg/mL]"
"O=S(=O)(Nc1cnccn1)c1ccc2c(c1)OCCO2 [Compound 11a, N-(pyrazin-2-yl)-2,3-dihydrobenzo[b][1,4]dioxine-6-sulfonamide]",250,> 100,>100,> 305,> 100,> 1000,> 100,≥ 500,264 to 267.1,–,–,–,–,–,–,–,–,–
"Nc1ccc(S(=O)(=O)Nc2cncc(Cl)n2)cc1 [Compound 4b, 4-amino-N-(6-chloropyrazin-2-yl)benzenesulfonamide]",250,25,–,44,12.5,> 500,6.25,≥ 500,234.7 to 236.1,88,22,–,–,–,–,–,–,–
"O=S(=O)(Nc1cncc(Cl)n1)c1ccc(-c2ccccc2)cc1 [Compound 12b, N-(6-chloropyrazin-2-yl)-[1,1′-biphenyl]-4-sulfonamide]",≥ 500,> 100,–,36.1,12.5,302,100,≥ 500,229.3 to 230.3,–,–,–,–,–,–,–,–,–
"O=S(=O)(Nc1cnccn1)c1ccc(C(F)(F)F)cc1 [Compound 5a, N-(pyrazin-2-yl)-4-(trifluoromethyl)benzenesulfonamide]",250,> 100,–,–,50,> 1000,> 100,250,154.3 to 155.5,–,–,–,–,–,–,–,–,–
"O=S(=O)(Nc1cncc(Cl)n1)c1ccc(C(F)(F)F)cc1 [Compound 5b, N-(6-chloropyrazin-2-yl)-4-(trifluoromethyl)benzenesulfonamide]",250,> 100,–,–,> 100,364,100,250,125 to 127.2,–,–,–,–,–,–,–,–,–
"O=[N+]([O-])c1ccc(S(=O)(=O)Nc2cncc(Cl)n2)cc1 [Compound 3b, N-(6-chloropyrazin-2-yl)-4-nitrobenzenesulfonamide]",125,> 100,–,–,> 100,> 1000,> 100,250,–,–,–,–,–,–,–,–,–,–
"Cc1cc(C)cc(S(=O)(=O)Nc2cncc(Cl)n2)c1 [Compound 8b, N-(6-chloropyrazin-2-yl)-3,5-dimethylbenzenesulfonamide]",≥ 500,50,–,–,> 100,523,50,≥ 500,–,–,–,–,–,–,–,–,–,–
"O=S(=O)(Nc1cnccn1)c1ccc2ccccc2c1 [Compound 13a, N-(pyrazin-2-yl)naphthalene-2-sulfonamide]",≥ 500,> 100,–,–,50,> 500,> 100,62.5,223.5 to 224.7,–,–,219,–,–,–,–,–,–
"O=S(=O)(Nc1cnccn1)c1ccc2ncccc2c1 [Compound 14a, N-(pyrazin-2-yl)quinoline-6-sulfonamide]",≥ 500,> 100,–,–,100,> 250,> 100,≥ 500,249.4 to 252,–,–,–,–,–,–,–,–,–
"CO[C@H]1/C=C/O[C@@]2(C)Oc3c(C)c(O)c4c(O)c(c(/C=N/N5CCN(C)CC5)c(O)c4c3C2=O)NC(=O)/C(C)=C\C=C\[C@H](C)[C@H](O)[C@@H](C)[C@@H](O)[C@@H](C)[C@H](OC(C)=O)[C@@H]1C [RFM, reference compound]",0.78 to 1.56,–,–,–,–,–,–,12.5 to 25,–,–,–,–,1.56,25,–,–,–,–
"O=S(=O)(Nc1cncc(Cl)n1)c1ccccc1 [Compound 1b, N-(6-chloropyrazin-2-yl)benzenesulfonamide]",≥ 500,> 100,–,–,100,731,50,250,198 to 200.2,–,–,–,–,–,50,–,–,–
"O=S(=O)(Nc1cncc(Cl)n1)c1ccc2c(c1)OCCO2 [Compound 11b, N-(6-chloropyrazin-2-yl)-2,3-dihydrobenzo[b][1,4]dioxine-6-sulfonamide]",≥ 500,> 100,–,76.3,25,778,> 100,≥ 500,244.6 to 247,–,–,–,–,–,–,–,–,–
"O=S(=O)(Nc1cncc(Cl)n1)c1ccc(Br)cc1 [Compound 7b, 4-bromo-N-(6-chloropyrazin-2-yl)benzenesulfonamide]",125,> 100,–,–,50,308,100,125,176.5 to 179.3,–,–,–,–,–,–,–,–,–
"O=[N+]([O-])c1ccc(S(=O)(=O)Nc2cnccn2)cc1 [Compound 3a, 4-nitro-N-(pyrazin-2-yl)benzenesulfonamide]",> 500,> 100,–,–,> 100,> 1000,> 100,> 500,230.8 to 231.8,–,–,–,–,–,–,–,–,–
"Cc1cc(C)c(C)c(S(=O)(=O)Nc2cnccn2)c1C [Compound 10a, 2,3,5,6-tetramethyl-N-(pyrazin-2-yl)benzenesulfonamide]",≥ 500,> 100,–,–,50,> 250,> 100,≥ 500,221 to 223.7,–,–,–,–,–,–,–,–,–
"O=S(=O)(Nc1cnccn1)c1ccc(-c2ccccc2)cc1 [Compound 12a, N-(pyrazin-2-yl)-[1,1′-biphenyl]-4-sulfonamide]",≥ 500,> 100,–,321,100,> 250,100,≥ 500,–,–,–,–,–,–,–,–,–,–
"Nc1ccc(S(=O)(=O)Nc2cnccn2)cc1 [Compound 4a, 4-amino-N-(pyrazin-2-yl)benzenesulfonamide]",250,100,–,6.2,–,776,6.25,≥ 500,–,–,25,–,–,–,–,–,–,–
"CC(=O)Nc1ccc(S(=O)(=O)Nc2cncc(Cl)n2)cc1 [Compound 2b, N-(4-(N-(6-chloropyrazin-2-yl)sulfamoyl)phenyl)acetamide]",≥ 500,> 100,–,76.5,25,> 500,> 100,250,–,–,–,–,–,–,–,–,–,–
"NS(=O)(=O)c1ccccc1 [Benzenesulfonamide, benzenesulfonamide]",–,–,–,–,–,–,–,–,–,–,–,–,–,–,–,completely inactive,> 100,–
"CC(=O)Nc1ccc(S(=O)(=O)Nc2cnccn2)cc1 [Compound 2a, N-(4-(N-(pyrazin-2-yl)sulfamoyl)phenyl)acetamide]",≥ 500,> 100,–,85.5,25,> 500,> 100,≥ 500,243.8 to 245.6,–,–,–,–,–,–,–,–,–
"COc1ccc(S(=O)(=O)Nc2cnccn2)cc1 [Compound 6a, 4-methoxy-N-(pyrazin-2-yl)benzenesulfonamide]",≥ 500,> 100,–,–,> 100,> 1000,> 100,≥ 500,–,–,–,–,–,–,> 100,–,–,–
"O=S(=O)(Nc1cnccn1)c1ccccc1 [Compound 1a, N-(pyrazin-2-yl)benzenesulfonamide]",≥ 500,> 100,–,–,100,> 1000,> 100,≥ 250,203 to 205,–,–,–,–,–,> 100,–,–,–
"Nc1ccc(S(=O)(=O)Nc2cnc3ccccc3n2)cc1 [Sulfaquinoxaline, reference compound]",250,50,–,–,12.5,–,3.13,125,–,–,–,–,–,–,–,–,–,–
"Cc1cc(C)cc(S(=O)(=O)Nc2cnccn2)c1 [Compound 8a, 3,5-dimethyl-N-(pyrazin-2-yl)benzenesulfonamide]",250,> 100,–,–,50,> 500,> 100,≥ 500,184 to 187,–,–,–,–,–,–,–,–,–
"Cc1cc(C)c(S(=O)(=O)Nc2cnccn2)c(C)c1 [Compound 9a, 2,4,6-trimethyl-N-(pyrazin-2-yl)benzenesulfonamide]",≥ 500,> 100,–,–,> 100,> 250,> 100,125,–,–,–,–,–,–,–,–,–,–
"Nc1ccc(S(=O)(=O)Nc2cncc(Cl)n2)cc1 [Sulfaclozine, reference compound]",–,–,12.5,–,–,–,–,–,–,–,–,–,250,250,–,6.25 µg/mL,–,25
